Measured values published in patent publication US20260217692A1 (Ascentage Pharma (Suzhou) Co., Ltd., priority 2023, published 2026).
Values joined by “and” are separate entries in the source; they are usually repeats but may differ in a detail not shown here. Identical values can stand only once. Counter-ions that a name gives are not always drawn.

Experiments:
Type in all cases: physicochemical
[1] = Polymorph screening test, suspension method (crystal form by XRPD after stirring in solvent); settings: for Crystal form (XRPD) / Crystal form (XRPD)/85° C.: mesylate screening, 3 days
Description: (or 50° C.) for 3 days in the dark and centrifuged to remove the supernatant; the resulting precipitate was dried under vacuum (25° C., −0.1 MPa); and the resulting solid was collected and subjected to the XRPD test. The results are as follows:
(or 50° C./80° C.) for 3 days in the dark and centrifuged to remove the supernatant; and the resulting precipitate was dried under vacuum (25° C., −0.1 MPa).
(or 50° C.) for 3 days in the dark and centrifuged to remove the supernatant; and the resulting precipitate was dried under vacuum (25° C., −0.1 MPa).

[2] = as above; settings: mesylate screening, suspension in Toluene, 3 days
[3] = Dynamic vapor sorption (DVS) hygroscopicity test; settings: 25° C. and 80% RH
Excerpt: In the present disclosure, the DVS test parameters are set as follows: [table]

[4] = Solubility of mesylate crystal form A in buffers with different pH values at 37° C.
Description: Suspension states at 15 min, 2 h, 4 h, and 24 h were recorded; and different sample solutions at 15 min, 2 h, 4 h, and 24 h were collected and added to 1.5 mL centrifuge tubes. The suspensions were centrifuged at 12000 rpm for 2 min to obtain supernatants, and the supernatants were subjected to 2-fold dilution to obtain the sample solutions (the solutions were subjected to 10-fold dilution if the samples were dissolved completely). The residual substrates were centrifuged and subjected to the XRPD test.

[5] = Stability of crystal forms under stability test conditions (appearance, XRPD, HPLC)
Description: The samples were placed under the stability conditions shown in the following table, sampling was performed at the corresponding time points, and the samples were subjected to appearance and XRPD tests. […] The stability results obtained are recorded in the following table. […] The samples were placed under the stability test conditions shown in the following table, sampling was performed at different time points, and the samples were subjected to the XRPD test. […] The samples were placed in an open state under the stability test conditions of 40° C./75% RH and 90% RH; and the samples were placed in a closed state at 60° C. in a light box (the test samples in the dark were placed in the same manner as the illumination test samples, and the treatment was performed in the dark). Sampling was performed at different time points, and the samples were subjected to the XRPD test. […] The samples were placed under the stability conditions shown in the following table, sampling was performed at the corresponding time points, and the samples were subjected to appearance and XRPD tests. […] The stability results obtained are recorded in the following table.

[6] = Polymorph screening test, diffusion method (crystal form by XRPD); settings: mesylate screening, diffusion at room temperature

stability of crystal form in solvent, suspension method ([1]; ethanol, isopropanol, ethyl acetate, isopropyl acetate, methyl tert-butyl ether, tetrahydrofuran, N-methylpyrrolidone, methyl acetate, 2-methyltetrahydrofuran, cyclohexane, n-hexane, toluene, or n-heptane): relatively good stability | crystal form when stirred in solvent ([1]; ethanol, isopropanol, ethyl acetate, isopropyl acetate, methyl tert-butyl ether, tetrahydrofuran, N-methylpyrrolidone, methyl acetate, 2-methyltetrahydrofuran, cyclohexane, n-hexane, toluene, or n-heptane at 25-50° C.): remained stable | Crystal form (XRPD) ([1]; suspension in 1,4-Dioxane, 25° C.): Crystal form A | Crystal form (XRPD) ([1]; suspension in 1,4-Dioxane, 50° C.): Crystal form E | Crystal form (XRPD) ([1]; suspension in Acetone-water 1:1, 25° C.): Clear solution | Crystal form (XRPD) ([1]; suspension in Acetone-water 1:1, 50° C.): Clear solution | Crystal form (XRPD) ([1]; suspension in Acetonitrile-water 1:1, 25° C.): Clear solution | Crystal form (XRPD) ([1]; suspension in Acetonitrile-water 1:1, 50° C.): Clear solution | Crystal form (XRPD) ([1]; suspension in Dichloromethane, 25° C.): No solid sample | Crystal form (XRPD) ([1]; suspension in Dichloromethane, 50° C.): No solid sample | Crystal form (XRPD) ([1]; suspension in Dichloromethane/acetone (v/v, 1:1), 25° C.): Crystal form A | Crystal form (XRPD) ([1]; suspension in Dichloromethane/acetone (v/v, 1:1), 50° C.): No solid sample | Crystal form (XRPD) ([1]; suspension in Dichloromethane/methanol (v/v, 1:1), 25° C.): Clear solution | Crystal form (XRPD) ([1]; suspension in Dichloromethane/methanol (v/v, 1:1), 50° C.): No solid sample | Crystal form (XRPD)/85° C. ([1]; suspension in Dioxane): Crystal form A | Crystal form (XRPD)/85° C. ([1]; suspension in MIBK): Crystal form A | Crystal form (XRPD) ([1]; suspension in Methanol-water 1:1, 25° C.): Crystal form B | Crystal form (XRPD) ([1]; suspension in Methanol-water 1:1, 50° C.): Clear solution | Crystal form (XRPD) ([1]; suspension in Methyl tert-butyl ether, 25° C.): Crystal form A | Crystal form (XRPD) ([1]; suspension in Methyl tert-butyl ether, 50° C.): Crystal form A | Crystal form (XRPD) ([1]; suspension in Tetrahydrofuran, 25° C.): Crystal form A | Crystal form (XRPD) ([1]; suspension in Tetrahydrofuran, 50° C.): Crystal form A | Crystal form (XRPD) ([1]; suspension in Toluene, 25° C.): Crystal form A | Crystal form (XRPD) ([1]; suspension in Toluene, 50° C.): Crystal form A | Crystal form (XRPD) ([1]; suspension in Water, 25° C.): Crystal form B | Crystal form (XRPD) ([1]; suspension in Water, 50° C.): Crystal form B | Crystal form (XRPD) ([1]; suspension in n-Heptane, 25° C.): Crystal form A | Crystal form (XRPD) ([1]; suspension in n-Heptane, 50° C.): Crystal form A | Crystal form (XRPD)/85° C. ([1]; suspension in n-Heptane): Crystal form A | crystal form when stirred in solvent ([1]; toluene or n-heptane at 25-85° C.): remained stable | Crystal form (XRPD)/85° C. [2]: Crystal form A | hygroscopic weight gain (DVS curve) [3]: 0.31±0.005% and 0.31% | Concentration ([4]; 0.01N hydrochloric acid, 15 min): >6 | Concentration ([4]; 0.01N hydrochloric acid, 2 h): >6 | Concentration ([4]; 0.01N hydrochloric acid, 4 h): >6 | Concentration ([4]; 0.01N hydrochloric acid, 24 h): >6 | Concentration ([4]; Pure water, 15 min): 0.747 | Concentration ([4]; Pure water, 2 h): 4.930 | Concentration ([4]; Pure water, 4 h): 4.657 | Concentration ([4]; Pure water, 24 h): 4.567 | Concentration ([4]; pH 1.2, 15 min): >6 | Concentration ([4]; pH 1.2, 2 h): >6 | Concentration ([4]; pH 1.2, 4 h): >6 | Concentration ([4]; pH 1.2, 24 h): >6 | Concentration ([4]; pH 4.5, 15 min): >6 | Concentration ([4]; pH 4.5, 2 h): 0.044 | Concentration ([4]; pH 4.5, 4 h): 0.046 | Concentration ([4]; pH 6.8, 15 min): 0.003 | Concentration ([4]; pH 6.8, 2 h): 0.005 | Concentration ([4]; pH 6.8, 4 h): 0.005 | Concentration ([4]; pH 6.8, 24 h): 0.015 | Crystal form result by XRPD test ([5]; 25° C./60% RH, 1 month): Crystal form A | Crystal form result by XRPD test ([5]; 25° C./60% RH, 2 months): Crystal form A | Crystal form result by XRPD test ([5]; 25° C./60% RH, 3 months): Crystal form A | Crystal form result by XRPD test ([5]; 25° C./60% RH, 6 months): Crystal form A | Crystal form result by XRPD test ([5]; 25° C./60% RH, 5 days): Crystal form A | Crystal form result by XRPD test ([5]; 25° C./60% RH, 10 days): Crystal form A | Crystal form result by XRPD test ([5]; 40° C./75% RH, 1 month): Crystal form A | Crystal form result by XRPD test ([5]; 40° C./75% RH, 2 months): Crystal form A | Crystal form result by XRPD test ([5]; 40° C./75% RH, 3 months): Crystal form A | Crystal form result by XRPD test ([5]; 40° C./75% RH, 6 months): Crystal form A | Crystal form result by XRPD test ([5]; 40° C./75% RH, 5 days): Crystal form A | Crystal form result by XRPD test ([5]; 40° C./75% RH, 10 days): Crystal form A | Crystal form result by XRPD test ([5]; 60° C., 1 month): Crystal form A | Crystal form result by XRPD test ([5]; 60° C., 2 months): Crystal form A | Crystal form result by XRPD test ([5]; 60° C., 3 months): Crystal form A | Crystal form result by XRPD test ([5]; 60° C., 6 months): Crystal form A | Crystal form result by XRPD test ([5]; 60° C., 5 days): Crystal form A | Crystal form result by XRPD test ([5]; 60° C., 10 days): Crystal form A | Crystal form result by XRPD test ([5]; 90% RH, 1 month): Crystal form A | Crystal form result by XRPD test ([5]; 90% RH, 2 months): Crystal form A | Crystal form result by XRPD test ([5]; 90% RH, 3 months): Crystal form A | Crystal form result by XRPD test ([5]; 90% RH, 5 days): Crystal form A | Crystal form result by XRPD test ([5]; 90% RH, 10 days): Crystal form A | Crystal form (XRPD) ([6]; good solvent Dichloromethane, poor solvent Acetone): Crystal form A | Crystal form (XRPD) ([6]; good solvent Dichloromethane, poor solvent Acetonitrile): Crystal forms A + B | Crystal form (XRPD) ([6]; good solvent Dichloromethane, poor solvent Ethanol): Crystal form A | Crystal form (XRPD) ([6]; good solvent Dichloromethane, poor solvent Ethyl acetate): Crystal forms A + B | Crystal form (XRPD) ([6]; good solvent Dichloromethane, poor solvent Tetrahydrofuran): Crystal forms A + B | Crystal form (XRPD) ([6]; good solvent Dimethyl sulfoxide, poor solvent Acetone): Clear solution | Crystal form (XRPD) ([6]; good solvent Dimethyl sulfoxide, poor solvent Acetonitrile): Clear solution | Crystal form (XRPD) ([6]; good solvent Dimethyl sulfoxide, poor solvent Ethanol): Clear solution | Crystal form (XRPD) ([6]; good solvent Dimethyl sulfoxide, poor solvent Ethyl acetate): Clear solution | Crystal form (XRPD) ([6]; good solvent Dimethyl sulfoxide, poor solvent Tetrahydrofuran): Clear solution | Crystal form (XRPD) ([6]; good solvent Methanol, poor solvent Acetone): Clear solution | Crystal form (XRPD) ([6]; good solvent Methanol, poor solvent Acetonitrile): Clear solution | Crystal form (XRPD) ([6]; good solvent Methanol, poor solvent Ethyl acetate): Clear solution | Crystal form (XRPD) ([6]; good solvent Methanol, poor solvent Tetrahydrofuran): Clear solution | Crystal form (XRPD) ([6]; good solvent N,N-Dimethylformamide, poor solvent Acetone): Clear solution | Crystal form (XRPD) ([6]; good solvent N,N-Dimethylformamide, poor solvent Acetonitrile): Clear solution | Crystal form (XRPD) ([6]; good solvent N,N-Dimethylformamide, poor solvent Ethanol): Clear solution | Crystal form (XRPD) ([6]; good solvent N,N-Dimethylformamide, poor solvent Ethyl acetate): Clear solution | Crystal form (XRPD) ([6]; good solvent N,N-Dimethylformamide, poor solvent Tetrahydrofuran): Clear solution
SMILES: Cc1cc(Nc2ncc(Cl)c(Nc3ccccc3S(=O)(=O)C(C)C)n2)c(OC(C)C)cc1C1=CCN(C2CCOCC2)CC1 [one equivalent of mesylate crystal form A]
